System: tail skin of SKH2 mice
Assay: Propigmenting activity by topical application on the tail of SKH2 mice (clinical pigmentation score, luminance by colorimeter)
Assay type: in vivo
Details: 5 days per week for 57 days, 0.01% travoprost, MC1R agonist A at 7%, B at 8%, compared with carrier group (combinations also with 0.01% travoprost alone)
Text: In mice, melanocytes are not present in the epidermis of the areas covered with hair and are mainly present in the hair follicles. The tail skin of SKH2 mice is pigmented, which is of particular interest for evaluating the effect of topical agents on skin pigmentation. The pigmentation modifications induced by these topical compounds can be quantified by various means, for instance the clinical score of the pigmentation and the measurement of the tail color using a colorimeter. The evaluation of the propigmenting activity of 0.01% travoprost alone or in combination with MC1R receptor agonists: compound A at 7% or compound B at 8%, is carried out by topical application on the tail of SKH2 mice for 57 days. The treatment is carried out 5 days per week for 57 days. 20 μl of the test product diluted in the carrier 145 are applied to the tail. In the case of the combinations, 20 μl of the MC1R agonist solution are applied after the treatment with 20 μl of the 0.01% travoprost solution. The clinical score of the animals is recorded once a week before irradiation; the pigmentation is evaluated by virtue of a score on a scale of 0 to 4. […]

## CC(C)OC(=O)CCC/C=C\C[C@@H]1[C@@H](/C=C/[C@@H](O)COc2cccc(C(F)(F)F)c2)[C@H](O)C[C@@H]1O [travoprost]
  clinical score for pigmentation (natural pigmentation of the tail skin): moderately increases the natural pigmentation of the tail skin as early as day 36
